Data published in US20240400560A1, “BICYCLIC HETEROCYCLIC DERIVATIVE HAVING VIRAL GROWTH INHIBITORY ACTIVITY AND PHARMACEUTICAL COMPOSITION CONTAINING SAME” (Shionogi & Co., Ltd., priority 2021, published 2024).
Like-named read-outs stand apart in the source and are kept apart here.

Target: SARS-CoV-2 3CL protease (Severe acute respiratory syndrome coronavirus 2, UniProt P0DTD1)
Assay: Inhibitory activity test against SARS-CoV-2 3CL proteases
Format: biochemical
[1] = read-out: IC50 (50% SARS-CoV-2 3CL protease inhibitory concentration)
[2] = IC50 (50% SARS-CoV-2 3CL protease inhibitory concentration)

Row | Structure (SMILES) | IC50 [1] [nM] | IC50 [2] [nM]
1 | Cn1cnc(Cn2c(=O)c3c4c(c(N5CC[C@@H](O)C5)cc3n(Cc3cc(F)c(F)c(F)c3)c2=O)CCO4)n1 [Compound I-0415] | < 100 | 
2 | COc1cc(-c2cnc(N)cc2Cl)cc2c1c(=O)n(Cc1ncn(C)n1)c(=O)n2Cc1cc(F)c(F)c(F)c1 [Compound I-0514] | < 100 | 
3 | O=c1[nH]cccc1Cn1c(=O)c2ccc(N3[C@@H]4CNC[C@H]3COC4)cc2n(Cc2cc(F)c(F)c(F)c2)c1=O [Compound I-0381] |  | < 100
4 | COc1nc(C2=CC3CCC(C2)N3)cc2c1c(=O)n(-c1cncc(Cl)c1)c(=O)n2Cc1cc(F)c(F)c(F)c1 (centres unmarked) [Compound I-0464] |  | 11
5 | Cn1cnc(Cn2c(=O)c3c(F)c(Cl)c(-c4cc(C#N)ccc4Cl)cc3n(Cc3cc(F)c(F)c(Cl)c3)c2=O)n1 [Compound I-0506] | < 100 | 
6 | O=c1[nH]cccc1Cn1c(=O)c2ccc(N3[C@@H]4CC[C@H]3CNC4)cc2n(Cc2cc(F)c(F)c(F)c2)c1=O [Compound I-0379] |  | < 100
7 | COc1nc(N2C[C@H]3C[C@@H]2CN3)cc2c1c(=O)n(-c1cncc(Cl)c1)c(=O)n2Cc1cc(F)c(F)c(F)c1 [Compound I-0459] | < 100 | 
8 | Cn1cnc(Cn2c(=O)c3c(Cl)cc(-c4cc5c(cc4Cl)NC(=O)C5)cc3n(Cc3cc(Cl)c(F)cn3)c2=O)n1 [Compound I-0117] | < 100 | 
9 | Cn1cnc(Cn2c(=O)c3ccc(-c4cc5c(cc4Cl)NC(=O)C5)c(F)c3n(Cc3cc(F)c(F)c(F)c3)c2=O)n1 [Compound I-0250] | 35 | 
10 | O=C1Cc2cc(-c3cc(F)c4c(=O)n(-c5cncc(Cl)c5)c(=O)n(Cc5cc(Cl)c(F)cn5)c4c3)c(Cl)cc2N1 [Compound I-0077] | < 100 | 
11 | COc1cc(-c2cc(C(O)C(F)(F)F)ccc2Cl)cc2c1c(=O)n(Cc1ncn(C)n1)c(=O)n2Cc1cc(F)c(F)c(F)c1 (centres unmarked) [Compound I-0517] | < 100 | 
12 | COc1cc(-c2cc(-c3ncc[nH]3)ccc2Cl)cc2c1c(=O)n(-c1cncc(Cl)c1)c(=O)n2Cc1ccc(F)c(C#N)c1 [Compound I-0120] | < 100 | 
13 | Cn1cnc(Cn2c(=O)c3c(F)c(I)c(-c4cc(C#N)ccc4Cl)cc3n(Cc3cc(F)c(F)c(Cl)c3)c2=O)n1 [Compound I-0542] | < 100 | 
14 | COc1cc(-c2nc(NS(C)(=O)=O)ccc2Cl)cc2c1c(=O)n(-c1cncc(C)c1)c(=O)n2Cc1cc(F)c(F)c(F)c1 [Compound I-0078] | < 100 | 
15 | Cn1cnc(Cn2c(=O)c3c(F)cc(-c4cc5c(cc4Cl)NC(=O)C54CC4)cc3n(Cc3cc(F)c(F)c(F)c3)c2=O)n1 [Compound I-0119] | 23 | 
16 | CN=S(C)(=O)c1ccc(Cl)c(-c2cc(OC)c3c(=O)n(-c4cncc(Cl)c4)c(=O)n(Cc4cc(F)c(F)c(F)c4)c3c2)c1 (centres unmarked) [Compound I-0199] | 16 | 
17 | Cn1cnc(Cn2c(=O)c3c(F)cc(-c4cc5cn[nH]c5cc4Cl)cc3n(Cc3cc(F)c(F)c(Cl)c3)c2=O)n1 [Compound I-0269] | < 100 | 
18 | COc1cc(-c2c(Cl)ccc3c2CNC3=O)cc2c1c(=O)n(Cc1ncn(C)n1)c(=O)n2Cc1cc(F)c(F)c(F)c1 [Compound I-0277] | 24 | 
19 | COc1cc(-c2cc(CC(=O)NC3CCN(C)CC3)ccc2Cl)cc2c1c(=O)n(-c1cncc(Cl)c1)c(=O)n2Cc1ccc(F)c(C#N)c1 [Compound I-0201] | < 100 | 
20 | COc1cc(-c2cc(CO)ccc2Cl)cc2c1c(=O)n(-c1cncc(C)c1)c(=O)n2Cc1cc(F)c(F)c(F)c1 [Compound I-0030] | 8.5 | 

Row | Structure (SMILES) | IC50 [1] [nM] | IC50 [2] [nM]
21 | COc1cc(-c2cc(CC(=O)NCCN(C)C)ccc2Cl)cc2c1c(=O)n(-c1cncc(Cl)c1)c(=O)n2Cc1cc(F)c(F)c(F)c1 [Compound I-0204] | < 100 | 
22 | COc1cc(-c2cc(S(C)(=N)=O)ccc2Cl)cc2c1c(=O)n(-c1cncc(Cl)c1)c(=O)n2Cc1cc(F)c(F)c(F)c1 (centres unmarked) [Compound I-0188] | 5.8 | 
23 | COc1nc(N2CC[C@@H](F)C2)cc2c1c(=O)n(Cc1ncn(C)n1)c(=O)n2Cc1cc(F)c(F)c(Cl)c1 [Compound I-0484] | < 100 | 
24 | COc1cc(-c2cc(CC(=O)NC3CCN(C)CC3)ccc2Cl)cc2c1c(=O)n(-c1cncc(Cl)c1)c(=O)n2Cc1cc(Cl)ccc1C [Compound I-0187] | 5 | 
25 | COc1cc(-c2cc(NS(C)(=O)=O)ccc2Cl)cc2c1c(=O)n(Cc1ncn(C)n1)c(=O)n2Cc1cc(F)c(F)c(F)c1 [Compound I-0136] | < 100 | 
26 | COc1cc(-c2nc3c(cc2Cl)NC(=O)C3)cc2c1c(=O)n(Cc1ncn(C)n1)c(=O)n2Cc1cc(F)c(F)c(F)c1 [Compound I-0005] | 10 | 
27 | Cn1cnc(Cn2c(=O)c3c4c(c(-c5cc(N=S(C)(C)=O)ccc5Cl)cc3n(Cc3cc(F)c(F)c(F)c3)c2=O)CCO4)n1 [Compound I-0472] | < 100 | 
28 | COc1nc(N2CCC(C#N)C2)cc2c1c(=O)n(Cc1ncn(C)n1)c(=O)n2Cc1cc(F)c(F)c(F)c1 (centres unmarked) [Compound I-0451] | < 100 | 
29 | Cn1cnc(Cn2c(=O)c3c4c(c(-c5cc6c(cc5Cl)NC(=O)C6)cc3n(Cc3cc(F)c(F)c(F)c3)c2=O)CCO4)n1 [Compound I-0353] | 0.45 | 
30 | COc1cc(-c2cc3c(cc2Cl)NC(=O)C3(C)C)cc2c1c(=O)n(Cc1ncn(C)n1)c(=O)n2Cc1cc(F)c(F)c(F)c1 [Compound I-0275] | 19 | 
31 | COc1cc(-c2cc(C(=O)NCCN3CCOCC3)ccc2Cl)cc2c1c(=O)n(Cc1ncn(C)n1)c(=O)n2Cc1cc(F)c(F)c(F)c1 [Compound I-0217] | < 100 | 
32 | Cn1cnc(Cn2c(=O)c3c(F)cc(-c4nc5c(cc4Cl)NC(=O)C5)cc3n(Cc3cc(F)c(F)c(F)c3)c2=O)n1 [Compound I-0009] | 21 | 
33 | Cn1c(-c2cc(C#N)ccc2Cl)cc2c(c1=O)c(=O)n(-c1cncc(Cl)c1)c(=O)n2Cc1cc(F)c(F)c(F)c1 [Compound I-0435] | 1 | 
34 | Cn1cnc(Cn2c(=O)c3c(F)cc(-c4cc5c(cc4Cl)NC(=O)C5)c(F)c3n(Cc3cc(F)c(F)c(F)c3)c2=O)n1 [Compound I-0002] | 6.2 | 
35 | COc1cc(-c2cc(NS(C)(=O)=O)ccc2Cl)cc2c1c(=O)n(-c1cncc(C)c1)c(=O)n2Cc1cc(F)c(F)c(F)c1 [Compound I-0070] | 9.8 | 
36 | COc1cc(-c2c(Cl)ccc3c2CN(C)C3=O)cc2c1c(=O)n(Cc1ncn(C)n1)c(=O)n2Cc1cc(F)c(F)c(F)c1 [Compound I-0278] | 26 | 
37 | NC1CCN(c2ccc3c(=O)n(Cc4ccc[nH]c4=O)c(=O)n(Cc4cc(F)c(F)c(F)c4)c3c2)C1 (centres unmarked) [Compound I-0142] | 25 | 
38 | COc1cc(-c2cc(CC(=O)O)ccc2Cl)cc2c1c(=O)n(-c1cncc(Cl)c1)c(=O)n2Cc1cc(Cl)ccc1C [Compound I-0198] | < 100 | 
39 | COc1cc(-c2cc(CC(=O)NCCS(C)(=O)=O)ccc2Cl)cc2c1c(=O)n(-c1cncc(Cl)c1)c(=O)n2Cc1cc(F)c(F)c(F)c1 [Compound I-0202] | 20 | 
40 | COc1nc(N2CC[C@@H](O)C2)cc2c1c(=O)n(Cc1ncn(C)n1)c(=O)n2Cc1cc(F)c(F)c(Cl)c1 [Compound I-0388] | 20 | 

Row | Structure (SMILES) | IC50 [1] [nM] | IC50 [2] [nM]
41 | COc1cc(-c2cc(C3COC3)ccc2Cl)cc2c1c(=O)n(Cc1ncn(C)n1)c(=O)n2Cc1cc(F)c(F)c(F)c1 [Compound I-0283] | 32 | 
42 | O=c1[nH]cccc1Cn1c(=O)c2ccc(N3C[C@@H]4CC[C@H]3CN4)cc2n(Cc2cc(F)c(F)c(F)c2)c1=O [Compound I-0380] | 14 | 
43 | CCn1c(-c2cc(C#N)ccc2Cl)cc2c(c1=O)c(=O)n(-c1cncc(Cl)c1)c(=O)n2Cc1cc(F)c(F)c(F)c1 [Compound I-0437] | 1.3 | 
44 | COc1cc(-c2cc(N=S(C)(C)=O)ccc2Cl)cc2c1c(=O)n(-c1cncc(Cl)c1)c(=O)n2Cc1cc(F)c(F)c(F)c1 [Compound I-0210] | 28 | 
45 | Cn1cnc(Cn2c(=O)c3c(Cl)cc(-c4cc5cn[nH]c5cc4Cl)cc3n(Cc3cc(F)c(F)c(Cl)c3)c2=O)n1 [Compound I-0173] | < 100 | 
46 | Cn1cnc(Cn2c(=O)c3c4c(c(-c5cc(C#N)ccc5Cl)cc3n(Cc3cc(F)c(F)c(F)c3)c2=O)CCCO4)n1 [Compound I-0460] | 9.2 | 
47 | COc1nc(N2CC[C@@H](F)C2)cc2c1c(=O)n(Cc1ncn(C)n1)c(=O)n2Cc1cc(F)c(F)c(F)c1 [Compound I-0453] |  | 2.5
48 | O=c1[nH]cccc1Cn1c(=O)c2ccc(N3C[C@@H]4C[C@H]3CN4)cc2n(Cc2cc(F)c(F)c(F)c2)c1=O [Compound I-0141] | < 100 | 
49 | CC1Cc2c(-c3cc(C#N)ccc3Cl)cc3c(c2O1)c(=O)n(Cc1ncn(C)n1)c(=O)n3Cc1cc(F)c(F)c(F)c1 (centres unmarked) [Compound I-0439] | 4.7 | 
50 | Cn1cnc(Cn2c(=O)c3c(F)cc(-c4cc(-c5nnc(N)o5)ccc4Cl)cc3n(Cc3cc(F)c(F)c(F)c3)c2=O)n1 [Compound I-0080] | 34 | 
51 | COc1cc(-c2cc(C(C)=O)ccc2Cl)cc2c1c(=O)n(-c1cncc(C)c1)c(=O)n2Cc1ccc(F)c(C#N)c1 [Compound I-0062] | 3.1 | 
52 | COc1cc(-c2cc(C(C)(C)O)ccc2Cl)cc2c1c(=O)n(-c1cncc(Cl)c1)c(=O)n2Cc1cc(F)c(F)c(F)c1 [Compound I-0075] | 18 | 
53 | CNC(=O)c1ccc(Cl)c(-c2cc(OC)c3c(=O)n(-c4cncc(C)c4)c(=O)n(Cc4ccc(F)c(C#N)c4)c3c2)c1 [Compound I-0192] | < 100 | 
54 | Cn1cnc(Cn2c(=O)c3c(Cl)cc(-c4cc5c(cc4Cl)NC(=O)C5)cc3n(Cc3cc(F)c(F)c(Cl)c3)c2=O)n1 [Compound I-0171] | 3.2 | 
55 | Cn1cnc(Cn2c(=O)c3c(=O)n(C)c(-c4cc(C#N)ccc4Cl)cc3n(Cc3cc(F)c(F)c(Cl)c3)c2=O)n1 [Compound I-0162] | 0.8 | 
56 | COc1cc(-c2cc(NS(C)(=O)=O)ccc2Cl)cc2c1c(=O)n(-c1cncc(Cl)c1)c(=O)n2Cc1cc(F)c(F)c(F)c1 [Compound I-0079] | < 100 | 
57 | CC1COc2c1c(-c1cc(C#N)ccc1Cl)cc1c2c(=O)n(Cc2ncn(C)n2)c(=O)n1Cc1cc(F)c(F)c(F)c1 (centres unmarked) [Compound I-0438] | 3.5 | 
58 | COc1cc(-c2c(Cl)ccc3c(=O)[nH]ccc23)cc2c1c(=O)n(Cc1ncn(C)n1)c(=O)n2Cc1cc(F)c(F)c(F)c1 [Compound I-0274] | 15 | 
59 | COc1cc(-c2cc(C(C)(C)O)ccc2Cl)cc2c1c(=O)n(-c1cncc(C)c1)c(=O)n2Cc1ccc(F)c(C#N)c1 [Compound I-0061] | 2.9 | 
